Laboratory results reported in patent US20260242414A1, “PEPTIDE EXPRESSION CONSTRUCTS AND USES THEREOF” (KYOTO PREFECTURAL PUBLIC UNIVERSITY CORPORATION, priority 2023, published 2026).

Columns and labels:
[1] = test system: GFPP1-10 expressing A549 cells; assay: mCherry and GFP expression in presence and absence of TMP; type: cell-based; settings: cells transfected with mCherry-DHFR-P2A-GFPβ11, following addition of TMP, FIG. 7B
Text: The mCherry-DHFR-P2A-GFPβ11 peptide expression unit was introduced into GFPP1-10 expressing A549 cells and mCherry and GFP expression levels were examined in the presence and absence of TMP.
Indeed, the percentage of cells expressing mCherry upon TMP treatment was similar in cells transfected with an m-Cherry only plasmid and cells transfected with a plasmid comprising the mCherry-DHFR-P2A-GFPβ11 peptide expression unit (FIGS. 7C and 7E).

H9c2 cells [2] = assay: Doxorubicin-induced hyperfission (MiNA) and cell death (DAPI/annexin5 FACS); type: cell-based
Procedure: The anti-apoptotic effect of peptide expression unit mRNA comprising the P110 coding sequence was assessed in H9c2 cells upon doxorubicin exposure, a treatment that induces mitochondrial stress, hyperfission, and cell death. Briefly, H92c cells were seeded on day 0 and lipofected with an mRNA of a peptide expression unit comprising P110 coding sequence on day 1 and treated with TMP. After 12 hours, the medium was changed, and the cells were treated with doxorubicin for 3 to 6 hours. As with LPS exposure assessments in Example 4, the effect of P110 on hyperfission was assessed via mitotracker green staining, followed by MiNA.
The increase in doxorubicin-induced fission was accompanied by an increase in footprint, a measure of mitochondrial mass, due to the expression of P110 from mRNA expression units, and by an increase in the length, number, and area of branching (FIGS. 9A-9F).

Drp1-Fis1 = assay: Immunoprecipitation with Fis1 followed by immunoblotting with Drp1; type: cell-based; settings: doxorubicin treatment, FIG. 10I-10K
Procedure: Association of Drp1 and Fis1 is an intracellular PPI that is associated with mitochondrial dysfunction. To determine whether interaction of Fis1 and Drp1 was associated with the accumulation of Drp1 at the mitochondrial membrane, immunoprecipitation with Fis1 followed by immunoblotting with Drp1 was performed.

H9c2 cells [3] = assay: Mitochondrial respiration, Seahorse XF Cell Mito Stress Test flux analysis; type: cell-based; settings: doxorubicin treatment; for mitochondrial respiration (oxygen consumption rate): FIG. 9I; for basal respiration: FIG. 9J; for ATP production: FIG. 9J-9M; for maximum respiration: FIG. 9K; for spare respiratory capacity: FIG. 9M; for proton leakage: FIG. 9N; for non-mitochondrial oxygen consumption: FIG. 9O
Procedure: Next, the effect of P110 expression on mitochondrial hyperfission was evaluated in the context of mitochondrial respiratory function. Briefly, oligomycin (2 μM), carbonyl cyanide p-trifluoromethoxyphenyl hydrazone (FCCP, 2 μM) and rotenone/antimycin A (0.5 μM), which were adjusted using the reagents in the Seahorse XF Cell Mito Stress Test Kit (103015-100, Agilent Technologies), were sequentially added to each well with 1×10^5 cells after baseline measurements with an XFe96 extracellular flux analyzer (Agilent Technologies, Santa Clara, CA, USA), and data were presented as oxygen consumption rate (pmol/min).

H9c2 cells [4] = assay: Western blot of apoptosis-associated proteins (cleaved caspase-3, cytochrome c, mitochondrial Drp1); type: cell-based; settings: for Drp1 in mitochondrial fractions (accumulation/aggregation): doxorubicin exposure, FIG. 10G-10H
Procedure: (§1) P110-expressing cells counteracted doxorubicin-induced apoptosis as well as gene transfer-associated induction of cell death (FIGS. 10A-10B). Next, doxorubicin-induced activation of caspase-3, which is a cysteine-aspartic acid protease that plays a central role in the execution-phase of cell apoptosis, was evaluated.
Hyperfission-associated release of cytochrome c from mitochondria triggers apoptosis; therefore, the release of cytochrome c in response to doxorubicin was evaluated. […] Given that P110 inhibits the recruitment of Drp1 to the mitochondrial membrane during fission, Drp1 in mitochondrial fractions were evaluated to determine whether the introduction of P110 mRNA affected this mechanism.

H9c2 cells [5] = assay: LPS-induced hyperfission: mitotracker green/MiNA, MitoSOX, TMRM; type: cell-based; settings: for mitochondrial ROS (MitoSOX): FIG. 8J-8K
Procedure: Next, lipopolysaccharide (LPS) was used as an external stressor to trigger hyperfission. Briefly, H92c cells were seeded on day 0 and lipofected with an mRNA of a peptide expression unit comprising P110 coding sequence on day 1 and treated with TMP. After 12 hours, the medium was changed, and the cells were treated with LPS for 12 hours and mitochondrial morphology of cells was evaluated using mitotracker green staining and Mitochondrial Network Analysis (MiNA). LPS-induced changes in mitochondrial reactive oxygen species (ROS) production were evaluated using MitoSOX staining. LPS-induced changes in mitochondrial membrane potential were evaluated using TMRM staining. For the purposes of this assessment, mCherry-positive cells were assumed to express transgenic P110, whereas mCherry-negative cells were assumed to lack transgenic P110 and were assessed separately (FIG. 8D). […] LPS treatment was associated with an increase in mitochondrial ROS, which was inhibited in P110-expressing cells (FIGS. 8J-8K), and with an increase in mitochondrial membrane potential per unit volume (FIGS. 8L-8N). Taken together, expression of P110 in cells suppressed mitophagy-related changes induced by LPS treatment.

H9c2 cells [6] = assay: Doxorubicin-induced apoptosis, FACS with DAPI and Annexin V; type: cell-based; settings: doxorubicin-treated cells, FIG. 10A-10B
Procedure: as §1

[7] = biological target: GFP β strand 1-10 (GFPβ1-10); assay: cell-based or functional assay
[8] = doxorubicin 3 to 6 hours, FIG. 9A-9F

Drp1-Fis1, sequence (O00429 whole entry): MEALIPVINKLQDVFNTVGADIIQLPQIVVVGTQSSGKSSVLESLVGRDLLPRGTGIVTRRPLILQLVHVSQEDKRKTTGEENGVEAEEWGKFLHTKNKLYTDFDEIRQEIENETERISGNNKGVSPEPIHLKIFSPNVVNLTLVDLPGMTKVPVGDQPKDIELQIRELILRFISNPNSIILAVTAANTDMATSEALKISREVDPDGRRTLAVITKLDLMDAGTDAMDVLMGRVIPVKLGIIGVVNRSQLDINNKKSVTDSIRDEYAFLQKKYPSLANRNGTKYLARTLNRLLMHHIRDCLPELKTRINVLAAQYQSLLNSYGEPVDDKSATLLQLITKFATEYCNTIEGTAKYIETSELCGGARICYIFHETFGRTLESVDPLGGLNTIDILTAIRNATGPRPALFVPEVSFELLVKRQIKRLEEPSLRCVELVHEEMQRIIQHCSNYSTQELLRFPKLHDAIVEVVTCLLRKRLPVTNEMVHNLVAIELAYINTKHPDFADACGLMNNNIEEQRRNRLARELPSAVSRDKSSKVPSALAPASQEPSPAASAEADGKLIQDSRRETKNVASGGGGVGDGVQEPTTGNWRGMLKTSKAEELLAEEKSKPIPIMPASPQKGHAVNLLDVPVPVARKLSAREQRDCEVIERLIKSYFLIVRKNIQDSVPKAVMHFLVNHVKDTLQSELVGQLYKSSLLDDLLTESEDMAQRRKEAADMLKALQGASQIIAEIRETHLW

Row | Compound | Drp1 co-immunoprecipitated with Fis1 (Drp1-Fis1) | mitochondrial respiration (oxygen consumption rate) (H9c2 cells [3]) | basal respiration (H9c2 cells [3]) | ATP production (H9c2 cells [3]) | maximum respiration (H9c2 cells [3]) | spare respiratory capacity (H9c2 cells [3]) | proton leakage (H9c2 cells [3]) | non-mitochondrial oxygen consumption (H9c2 cells [3]) | Drp1 in mitochondrial fractions (accumulation/aggregation) (H9c2 cells [4]) | mitochondrial ROS (MitoSOX) (H9c2 cells [5]; LPS treatment 12 hours) | other results
1 | COc1cc(Cc2cnc(N)nc2N)cc(OC)c1OC [TMP, trimethoprim] |  |  |  |  |  |  |  |  |  |  | mCherry expression (FACS) [1]: increased sharply
2 | COc1cccc2c1C(=O)c1c(O)c3c(c(O)c1C2=O)C[C@@](O)(C(=O)CO)C[C@@H]3O[C@H]1C[C@H](N)[C@H](O)[C@H](C)O1 [doxorubicin] | significantly enhanced | decreased | significantly decreased | significantly decreased | significantly decreased | significantly decreased | decrease | significantly decreased | strong accumulation |  | cell death, DAPI/annexin5 double positive cells (FACS) (H9c2 cells [2]; doxorubicin-treated H9c2 cells, FIG. 9G-9H): ~15 % of cells
3 | DLLPRGT [P110] | restored to almost control levels | attenuated | significant attenuation | significant attenuation | significant attenuation | comparable to that observed in untreated control cells | slightly improved | significant attenuation | significantly prevented | inhibited | indications of hyperfission: branching length, area of branching points, number of branching points (MiNA) (H9c2 cells [5]; mCherry-positive cells, LPS 12 hours, FIG. 8D-8I): reversed indications of hyperfission; footprint, a measure of mitochondrial mass (MiNA) (H9c2 cells [2]; [8]): increase; length, number, and area of branching (MiNA) (H9c2 cells [2]; [8]): increase; doxorubicin-induced apoptosis (DAPI/Annexin V FACS) (H9c2 cells [6]): counteracted; non-mitochondrial apoptotic pathways (H9c2 cells [4]; doxorubicin): unaffected; cytochrome c release (H9c2 cells [4]; doxorubicin, FIG. 10E-10F): completely suppressed; cleaved caspase-3 expression (western blot) (H9c2 cells [4]; effects of gene transfer method and doxorubicin, FIG. 10C-10D): reduced
4 | GFP β strand 11 (GFPβ11) (peptide) |  |  |  |  |  |  |  |  |  |  | GFP-positive fraction of mCherry-positive cells (split GFP complementation), FACS, H9c2 cells [7]: 40%
5 | lipopolysaccharide [LPS] |  |  |  |  |  |  |  |  |  | increase | mitochondrial membrane potential per unit volume (TMRM) (H9c2 cells [5]; LPS treatment 12 hours, FIG. 8L-8N): increase
